{
  "source": "patent US20260256771A1",
  "about": "“GALUNISERTIB FOR USE IN THE TREATMENT OF ANDROGENIC ALOPECIA” (SAÚDE VIÁVEL, S.A., priority 2022, published 2026)",
  "key": {"[1]": {"test_system": "phosphorylated SMAD2 (p-SMAD2)", "assay": "Western blot of phospho-SMAD2 in hair bulbs of HFOCs", "format": "cell-based, human", "conditions": "untreated vs DHT-treated HFOCs, 72 h", "experimental": "For western blot, hair bulbs are dissected from HFOCs treated with DMSO, DHT and Galunisertib for 72 h. Upon rinse in PBS, hair bulbs are lysed in Laemmli buffer (without bromophenol blue) with Halt Protease Inhibitor Cocktail and Halt Phosphatase Inhibitor Cocktail, and lysates are sonicated. Lysates from 10 hair bulbs are used for each condition tested. Total extracts are then loaded in SDS-polyacrylamide gels and transferred onto nitrocellulose membranes for western blot analysis. Membranes are blocked during 1 h with TBS+5% BSA. Primary and secondary antibodies are diluted in TBS+2% BSA accordingly to Supplementary Table 1. Signal is detected using Clarity Western ECL Substrate reagent. A GS-800 calibrated densitometer with Quantity One 1-D Analysis Software 4.6 (Bio-Rad Laboratories) is used for quantitative analysis of protein levels.\n(§1) In addition, only anagen hair follicles are used.\n(§2) Hair growth percentages is normalized to day 0."}, "TGFβ1": {"test_system": "TGFβ1", "conditions": "DP isolated from human HFs cultured ex vivo for 48 h; DHT-treated (1 μM) vs. untreated HFOCs", "experimental": "(§3) For RNA isolation and Quantitative Real-Time PCR (qPCR), Qiagen RNeasy kit (Qiagen, Germany) is used to isolate RNA. Concentration and purity are ascertained in a NanoDrop spectrophotometer. 600 ng of RNA are reverse transcribed into complementary DNA with iScript™ cDNA Synthesis Kit. Quantitative real-time polymerase chain reactions (qPCRs) are performed in a CFX384 Touch™ Real-Time PCR Detection System (Bio-Rad Laboratories). 10 μl reaction mixes are prepared consisting of iTaq™ Universal SYBR® Green Supermix (Bio-Rad Laboratories), forward and reverse primers (at 125 nM each) and cDNA (30 ng). The amplification program used is: 95° C. for 3 min, followed by 39 cycles of 95° C. for 10 s, 60° C. for 35 s, and melt curve from 55° C. to 95° C. with 0.5° C. increment for 10 s. All primers are designed to span at least one […]. Transcript levels are quantified by the 2-ΔΔCt method. ΔCt values are determined by subtracting the geometrical mean of the Ct values for GAPDH and UBQ from the mean target gene Ct value.\n(§4) Hair grafts are obtained from male patients aged between 18-55 years with informed consent. A total of 10-20 micrografts are harvested from the occipital scalp of patients diagnosed with androgenic alopecia and undergoing autologous hair transplantation by the routine FUE technique."}, "TGFβ3": {"test_system": "TGFβ3", "conditions": "DP isolated from human HFs cultured ex vivo for 48 h; DHT-treated (1 μM) vs. untreated HFOCs", "experimental": "as §3, §4"}, "TGFβ2": {"test_system": "TGFβ2", "assay": "qRT-PCR of TGFβ transcripts in dermal papilla isolated from HFOCs", "format": "cell-based, human", "conditions": "DP isolated from human HFs cultured ex vivo for 48 h; DHT-treated (1 μM) vs. untreated HFOCs", "description": "Concentration and purity are ascertained in a NanoDrop spectrophotometer.\nas §1, §2"}},
  "data": [
    {"smiles": "C[C@]12CCC(=O)C[C@@H]1CC[C@@H]1[C@@H]2CC[C@]2(C)[C@@H](O)CC[C@@H]12", "note": "[DHT, dihydrotestosterone]", "values": [
      {"measurement": "p-SMAD2 protein levels in hair bulbs", "setting": "[1]", "value": "equivalent"},
      {"measurement": "TGFβ1 transcript levels in DP", "setting": "TGFβ1", "value": "remaining unchanged"},
      {"measurement": "TGFβ3 transcript levels in DP", "setting": "TGFβ3", "value": "remaining unchanged"},
      {"measurement": "TGFβ2 transcript levels in DP", "setting": "TGFβ2", "value": "slightly increased"}
    ]}
  ]
}
